Here are results for 17 molecules from patent US10472341B2, “Bicyclic tetrahydrothiazepine derivatives useful for the treatment of neoplastic and/or infectious diseases” (APEIRON BIOLOGICS AG, priority 2015, dated 2019).

The subject of the assay is aCD3/aCD28-stimulated human PBMCs. The assay can be described thus: Cytokine production in aCD3/aCD28 stimulated human PBMCs. The assay is classed as cell-based. As to conditions: PBMC, 18 h. As for the experimental part: In order to determine the immune modulatory effect of compounds of compounds of the present invention in human PBMCs, compounds were assessed in the following assay set-up:
Buffy coats were obtained from a local hospital, diluted 3 fold with PBS and layered onto an isotonic Ficoll separating solution d=1.077 g/mL in 50 mL centrifuge tubes. The tubes were centrifuged at 914 g for 25 min at room temperature with the brakes off. The PBMC layer was removed and washed twice with ice-cold PBS. Erythrocytes were lysed by addition of ddH2O and cells were resuspended in X-Vivo15 (Lonza).
1e6 cells/mL were stimulated with soluble anti CD3/CD28 antibodies (1 μg/mL both, clones OKT3 and 28.2) in the presence of described compounds. Cells were incubated for 18 h at 37° C., 5% CO2. Assay plates were centrifuged at 400 g for 5 min and supernatants harvested. Cytokine concentration in tissue culture supernatants were determined with MSD or HTRF kits (MSD and Cisbio), according to manufacturer's instructions.

[1] abbreviates: enhancement of IFN-γ production, read-out: Activity Class IFN-γ.
[2] abbreviates: enhancement of IL-2 production, read-out: Activity Class IL-2.

Where a name gives a salt, the structure may show the parent alone. Read-outs that look alike come from different tables or passages of the source.

As for `N[C@H]1CS(=O)(=O)c2ccc(C(=O)NC3CC(F)(F)C3)cc2N(Cc2ccccc2F)C1=O` [Example 148, (3R)-3-amino-N-(3,3-difluorocyclobutyl)-5-[(2-fluorophenyl)methyl]-1,1,4-trioxo-2,3,4,5-tetrahydro-1λ^6,5-benzothiazepine-7-carboxamide], the EC50 by setting is: under setting [1], 1.58 to 5.01 µM; under setting [2], above 5.01 µM.
For `N[C@H]1CS(=O)(=O)c2ccc(C(=O)NCC3CCOCC3)cc2N(Cc2ccc(OC(F)F)cc2)C1=O` [Example 164, (3R)-3-amino-5-{[4-(difluoromethoxy)phenyl]methyl}-N-[(oxan-4-yl)methyl]-1,1,4-trioxo-2,3,4,5-tetrahydro-1λ^6,5-benzothiazepine-7-carboxamide], the EC50 by setting is: under setting [1], above 5.01 µM; under setting [2], above 5.01 µM.
Turning to `N[C@H]1CS(=O)(=O)c2ccc(C(=O)N[C@@H]3C[C@@H]3F)cc2N(Cc2ccc(Cl)cc2)C1=O` [Example 147, (3R)-3-amino-5-[(4-chlorophenyl)methyl]-N-[(1R,2S)-2-fluorocyclopropyl]-1,1,4-trioxo-2,3,4,5-tetrahydro-1λ^6,5-benzothiazepine-7-carboxamide], the EC50 is above 5.01 µM under setting [1] and above 5.01 µM under setting [2].
As to `CC(C)NC(=O)c1ccc2c(c1)N(Cc1ccc(Cl)cc1)C(=O)[C@@H](N)CS2` [Example 61, (3R)-3-amino-5-[(4-chlorophenyl)methyl]-4-oxo-N-(propan-2-yl)-2,3,4,5-tetrahydro-1,5-benzothiazepine-7-carboxamide hydrochloride], the EC50 reads like this: under setting [1], 1.58 to 5.01 µM; under setting [2], above 5.01 µM.
As to `N[C@H]1CS(=O)(=O)c2cc(F)c(C(=O)NCc3ccc(F)cc3)cc2N(Cc2nnc(C3CC3)s2)C1=O` [Example 138, (3R)-3-amino-5-[(5-cyclopropyl-1,3,4-thiadiazol-2-yl)methyl]-8-fluoro-N-[(4-fluorophenyl)methyl]-1,1,4-trioxo-2,3,4,5-tetrahydro-1λ^6,5-benzothiazepine-7-carboxamide hydrochloride], the EC50 runs as follows: under setting [1], 1.58 to 5.01 µM; under setting [2], above 5.01 µM.
In the case of `COc1ccc(CN2C(=O)[C@@H](N)CS(=O)(=O)c3cc(F)c(C(=O)NC4CC4(F)F)cc32)cc1C(F)(F)F` (stereo partly drawn) [Example 117, (3R)-3-amino-N-(2,2-difluorocyclopropyl)-8-fluoro-5-{[4-methoxy-3-(trifluoromethyl)phenyl]methyl}-1,1,4-trioxo-2,3,4,5-tetrahydro-1λ^6,5-benzothiazepine-7-carboxamide hydrochloride], the EC50 runs as follows: under setting [1], below 1.58 µM; under setting [2], above 5.01 µM.
Regarding `N[C@H]1CS(=O)(=O)c2ccc(C(=O)NC3CC4(COC4)C3)cc2N(Cc2ccc(Cl)cc2)C1=O` [Example 181, (3R)-3-amino-5-[(4-chlorophenyl)methyl]-N-{2-oxaspiro[3.3]heptan-6-yl}-1,1,4-trioxo-2,3,4,5-tetrahydro-1λ^6,5-benzothiazepine-7-carboxamide], the EC50 reads like this: under setting [1], above 5.01 µM; under setting [2], above 5.01 µM.
Take `Cc1ccc(CNC(=O)c2ccc3c(c2)N(Cc2ccc(Cl)cc2)C(=O)[C@@H](N)CS3(=O)=O)cn1` [Example 168, (3R)-3-amino-5-[(4-chlorophenyl)methyl]-N-[(6-methylpyridin-3-yl)methyl]-1,1,4-trioxo-2,3,4,5-tetrahydro-1λ^6,5-benzothiazepine-7-carboxamide]: the EC50 runs as follows: under setting [1], 1.58 to 5.01 µM; under setting [2], above 5.01 µM.
Turning to `COc1ccc(CNC(=O)c2ccc3c(c2)N(Cc2ccc(Cl)cc2)C(=O)[C@@H](N)CS3(=O)=O)cn1` [Example 177, (3R)-3-amino-5-[(4-chlorophenyl)methyl]-N-[(6-methoxypyridin-3-yl)methyl]-1,1,4-trioxo-2,3,4,5-tetrahydro-1λ^6,5-benzothiazepine-7-carboxamide], the EC50 under setting [1] is below 1.58 µM and the EC50 under setting [2] is 1.58 to 5.01 µM.
For `Cc1nc(-c2ccc(CN3C(=O)[C@@H](N)CS(=O)(=O)c4ccc(C(=O)NC5CC5(F)F)cc43)cc2)no1` (stereo partly drawn) [Example 121, (3R)-3-amino-N-(2,2-difluorocyclopropyl)-5-{[4-(5-methyl-1,2,4-oxadiazol-3-yl)phenyl]methyl}-1,1,4-trioxo-2,3,4,5-tetrahydro-1λ^6,5-benzothiazepine-7-carboxamide hydrochloride], the EC50 under setting [1] is above 5.01 µM and the EC50 under setting [2] was above 5.01 µM.
For the molecule `N#Cc1ccc(CN2C(=O)[C@@H](N)CS(=O)(=O)c3cc(F)c(C(=O)NCc4ccc(F)cc4)cc32)cc1` [Example 170, (3R)-3-amino-5-[(4-cyanophenyl)methyl]-8-fluoro-N-[(4-fluorophenyl)methyl]-1,1,4-trioxo-2,3,4,5-tetrahydro-1λ^6,5-benzothiazepine-7-carboxamide], the EC50 is below 1.58 µM under setting [1] and below 1.58 µM under setting [2].
As for `N[C@H]1CS(=O)(=O)c2ccc(C(=O)N[C@@H]3CC3(F)F)cc2N(Cc2ccccc2)C1=O` [Example 167, (3R)-3-amino-5-benzyl-N-[(1R)-2,2-difluorocyclopropyl]-1,1,4-trioxo-2,3,4,5-tetrahydro-1λ^6,5-benzothiazepine-7-carboxamide], the EC50 reads like this: under setting [1], above 5.01 µM; under setting [2], above 5.01 µM.
For `C[C@@H](NC(=O)c1ccc2c(c1)N(Cc1ccc(Cl)cc1)C(=O)[C@@H](N)CS2(=O)=O)C1CCOCC1` [Example 166, (3R)-3-amino-5-[(4-chlorophenyl)methyl]-N-[(1R)-1-(oxan-4-yl)ethyl]-1,1,4-trioxo-2,3,4,5-tetrahydro-1λ^6,5-benzothiazepine-7-carboxamide], the EC50 under setting [1] was above 5.01 µM and the EC50 under setting [2] was above 5.01 µM.
In the case of `CN(C)c1cc2c(cc1C(=O)NCc1ccccc1)N(Cc1ccc(Cl)cc1)C(=O)[C@@H](N)CS2(=O)=O` [Example 116, (3R)-3-amino-N-benzyl-5-[(4-chlorophenyl)methyl]-8-(dimethylamino)-1,1,4-trioxo-2,3,4,5-tetrahydro-1λ^6,5-benzothiazepine-7-carboxamide hydrochloride], the EC50 was 1.58 to 5.01 µM under setting [1] and above 5.01 µM under setting [2].
As for `C#CCCNC(=O)c1cc2c(cc1F)S(=O)(=O)C[C@H](N)C(=O)N2Cc1ccc(Cl)cc1` [Example 173, (3R)-3-amino-N-(but-3-yn-1-yl)-5-[(4-chlorophenyl)methyl]-8-fluoro-1,1,4-trioxo-2,3,4,5-tetrahydro-1λ^6,5-benzothiazepine-7-carboxamide], the EC50 was 1.58 to 5.01 µM under setting [1] and above 5.01 µM under setting [2].
The matching figures for `COCCNC(=O)c1ccc2c(c1)N(Cc1ccc(Cl)cc1)C(=O)[C@@H](N)CS2` [Example 20, (3R)-3-amino-5-[(4-chlorophenyl)methyl]-N-(2-methoxyethyl)-4-oxo-2,3,4,5-tetrahydro-1,5-benzothiazepine-7-carboxamide hydrochloride]: 1.58 to 5.01 µM and above 5.01 µM.
The matching figures for `C#CCCCNC(=O)c1cc2c(cc1F)S(=O)(=O)C[C@H](N)C(=O)N2Cc1ccc(Cl)cc1` [Example 174, (3R)-3-amino-5-[(4-chlorophenyl)methyl]-8-fluoro-1,1,4-trioxo-N-(pent-4-yn-1-yl)-2,3,4,5-tetrahydro-1λ^6,5-benzothiazepine-7-carboxamide]: 1.58 to 5.01 µM and 1.58 to 5.01 µM.
